From patent US10189788B2, “Substituted N,2-diarylquinoline-4-carboxamides and the use thereof as anti-inflammatory agents” (BAYER PHARMA AKTIENGESELLSCHAFT, priority 2014, dated 2019)

Assays:
Human FP Receptor [1] = biological target: T1, Human FP Receptor (Homo sapiens (Human), UniProt P43088); assay: In vitro test of inhibition of human FP receptor activity, variant B-1A (PGF2α-induced calcium flux in FP-expressing CHEM1 cells); assay type: cell-based; conditions: calcium flux induced by 3 nM PGF2α, Fluo-8, some mean values from multiple determinations
Description: • BSA bovine serum albumin • CRTH2 chemoattractant receptor-homologous molecule expressed on T helper type 2 cells • DMEM Dulbecco's modified Eagle's medium • DMSO dimethyl sulfoxide • DP PGD2 receptor • EC50 half-maximum effective concentration • em. emission • EP PGE2 receptor • ex. excitation • FCS fetal calf serum • FP PGF2α receptor • HEPES 2-[4-(2-hydroxyethyl)piperazin-1-yl]ethanesulfonic acid • IC50 half-maximum inhibitory concentration • IP PGI2 receptor • MES 2-(N-morpholino)ethanesulfonic acid • Pen/Strep penicillin/streptomycin • PGD2 prostaglandin D2 • PGE2 prostaglandin E2 • PGF2α prostaglandin F2α • PGI2 prostaglandin […] • TC tissue culture • TP thromboxane A2 receptor • Tris tris(hydroxymethyl)aminomethane • v/v volume to volume ratio (of a solution) • w/w weight to weight ratio (of a solution) B-1.

Human FP Receptor [2] = biological target: T1, Human FP Receptor; assay: In vitro test of inhibition of human FP receptor activity, variant B-1B (PGF2α-induced calcium flux in recombinant FP-expressing CHO cells with GCaMP6); assay type: cell-based; conditions: recombinant FP-expressing CHO cells with GCaMP6, calcium flux induced by 3 nM PGF2α, some mean values from multiple determinations
Description: 470 nm/em. 525 nm in a fluorescence measuring instrument (FLIPR Tetra®, MolecularDevices) for 120 seconds.

[3] = unstable molecule, rearranged enzymatically in lung, liver and kidney to 15-ketodihydro-PGF2α; cited from earlier work
[4] = eliminated renally; cited from earlier work

T1 sequence (P43088 whole entry): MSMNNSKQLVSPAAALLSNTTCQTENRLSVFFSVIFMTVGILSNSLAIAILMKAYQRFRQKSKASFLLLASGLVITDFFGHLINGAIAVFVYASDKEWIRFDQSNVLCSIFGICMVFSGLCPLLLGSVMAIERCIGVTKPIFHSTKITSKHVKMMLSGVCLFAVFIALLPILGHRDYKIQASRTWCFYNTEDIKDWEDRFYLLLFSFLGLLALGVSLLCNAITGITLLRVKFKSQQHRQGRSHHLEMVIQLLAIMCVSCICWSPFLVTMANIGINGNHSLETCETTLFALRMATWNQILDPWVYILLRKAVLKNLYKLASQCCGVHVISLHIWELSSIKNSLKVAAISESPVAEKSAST

## COCSc1cc(C(=O)O)ccc1NC(=O)c1c(C)c(-c2ccccc2)nc2ccc(Br)cc12 [Example 52, 4-{[(6-Bromo-3-methyl-2-phenylquinolin-4-yl)carbonyl]amino}-3-[(methoxymethyl)sulfanyl]benzoic acid]
Human FP Receptor [1]
  IC50: 17 nM
Human FP Receptor [2]
  IC50: 6 nM

## Cc1c(-c2ccccc2)nc2ccc(Br)cc2c1C(=O)Nc1ccc(C(=O)O)c(F)c1F [Example 65, 4-{[(6-Bromo-3-methyl-2-phenylquinolin-4-yl)carbonyl]amino}-2,3-difluorobenzoic acid]
Human FP Receptor [1]
  IC50: 105 nM
Human FP Receptor [2]
  IC50: 60 nM

## Cc1c(-c2ccccc2)nc2ccc(Br)cc2c1C(=O)Nc1ccc(C(=O)O)cc1F [Example 7, 4-{[(6-Bromo-3-methyl-2-phenylquinolin-4-yl)carbonyl]amino}-3-fluorobenzoic acid]
Human FP Receptor [1]
  IC50: 20 nM
Human FP Receptor [2]
  IC50: 34 nM

## Cc1c(-c2ccccc2)nc2ccc(Br)cc2c1C(=O)Nc1ccc(C(=O)O)cc1F [Example 50, Sodium 4-{[(6-bromo-3-methyl-2-phenylquinolin-4-yl)carbonyl]amino}-3-fluorobenzoate]
Human FP Receptor [1]
  IC50: 37 nM
Human FP Receptor [2]
  IC50: 44 nM

## O=C(O)c1ccc(NC(=O)c2c(F)c(-c3ccccc3)nc3ccc(Br)cc23)c(F)c1 [Example 73, 4-{[(6-Bromo-3-fluoro-2-phenylquinolin-4-yl)carbonyl]amino}-3-fluorobenzoic acid]
Human FP Receptor [2]
  IC50: 98 nM

## CCNC(=O)Nc1cc(C(=O)O)ccc1NC(=O)c1c(C)c(-c2ccccc2)nc2ccc(Br)cc12 [Example 20, 4-{[(6-Bromo-3-methyl-2-phenylquinolin-4-yl)carbonyl]amino}-3-[(ethylcarbamoyl)amino]benzoic acid]
Human FP Receptor [1]
  IC50: 530 nM

## Cc1c(-c2ccccc2)nc2cc(Cl)c(Br)cc2c1C(=O)Nc1ccc(C(=O)O)cc1F [Example 41, 4-{[(6-Bromo-7-chloro-3-methyl-2-phenylquinolin-4-yl)carbonyl]amino}-3-fluorobenzoic acid]
Human FP Receptor [1]
  IC50: 25 nM

## Cc1c(-c2ccccc2)nc2ccc(Br)cc2c1C(=O)Nc1ccc(C(=O)O)cc1C(F)(F)F [Example 15, 4-{[(6-Bromo-3-methyl-2-phenylquinolin-4-yl)carbonyl]amino}-3-(trifluoromethyl)benzoic acid]
Human FP Receptor [1]
  IC50: 45 nM

## Cc1c(-c2cccc(F)c2)nc2ccc(Br)cc2c1C(=O)Nc1ccc(C(=O)O)cc1F [Example 44, 4-({[6-Bromo-2-(3-fluorophenyl)-3-methylquinolin-4-yl]carbonyl}amino)-3-fluorobenzoic acid]
Human FP Receptor [1]
  IC50: 33 nM

## Cc1c(-c2ccccc2)nc2ccc(Br)cc2c1C(=O)Nc1c(F)cc(C(=O)O)cc1F [Example 12, 4-{[(6-Bromo-3-methyl-2-phenylquinolin-4-yl)carbonyl]amino}-3,5-difluorobenzoic acid]
Human FP Receptor [1]
  IC50: 22 nM

## Cc1c(-c2ccccc2)nc2ccc(F)cc2c1C(=O)Nc1ccc(C(=O)O)cc1F [Example 29, 3-Fluoro-4-{[(6-fluoro-3-methyl-2-phenylquinolin-4-yl)carbonyl]amino}benzoic acid]
Human FP Receptor [1]
  IC50: 890 nM

## Cc1c(-c2ccccc2)nc2ccc(Br)cc2c1C(=O)Nc1ccc(C(=O)O)cc1 [Example 1, 4-{[(6-Bromo-3-methyl-2-phenylquinolin-4-yl)carbonyl]amino}benzoic acid]
Human FP Receptor [1]
  IC50: 166 nM

## O=C(O)c1ccc(NC(=O)c2c(CF)c(-c3ccccc3)nc3ccc(Br)cc23)c(F)c1 [Example 37, 4-({[6-Bromo-3-(fluoromethyl)-2-phenylquinolin-4-yl]carbonyl}amino)-3-fluorobenzoic acid]
Human FP Receptor [1]
  IC50: 39 nM

## Cc1c(-c2ccccc2)nc2ccc(Br)cc2c1C(=O)Nc1ccc(C(=O)O)cc1C#N [Example 16, 4-{[(6-Bromo-3-methyl-2-phenylquinolin-4-yl)carbonyl]amino}-3-cyanobenzoic acid]
Human FP Receptor [1]
  IC50: 278 nM

## Cc1c(-c2ccccc2)nc2ccc(Br)cc2c1C(=O)Nc1ccc(C(=O)O)cc1N [Example 18, 3-Amino-4-{[(6-bromo-3-methyl-2-phenylquinolin-4-yl)carbonyl]amino}benzoic acid]
Human FP Receptor [1]
  IC50: 335 nM

## Cc1c(-c2ccccc2)nc2ccc(Br)cc2c1C(=O)Nc1ccc(C(=O)O)cc1Br [Example 10, 3-Bromo-4-{[(6-bromo-3-methyl-2-phenylquinolin-4-yl)carbonyl]amino}benzoic acid]
Human FP Receptor [1]
  IC50: 41 nM

## Cc1c(-c2ccccc2)nc2ccc(OC(F)(F)F)cc2c1C(=O)Nc1ccc(C(=O)O)cc1F [Example 35, 3-Fluoro-4-({[3-methyl-2-phenyl-6-(trifluoromethoxy)quinolin-4-yl]carbonyl}amino)benzoic acid]
Human FP Receptor [1]
  IC50: 290 nM

## Cc1c(-c2ccccc2)nc2ccc(Br)cc2c1C(=O)Nc1ccc(C(N)=O)cc1F [Example 48, 6-Bromo-N-(4-carbamoyl-2-fluorophenyl)-3-methyl-2-phenylquinoline-4-carboxamide]
Human FP Receptor [1]
  IC50: 102 nM

## COc1c(-c2ccccc2)nc2ccc(Br)cc2c1C(=O)Nc1ccc(C(=O)O)cc1F [Example 74, 4-{[(6-Bromo-3-methoxy-2-phenylquinolin-4-yl)carbonyl]amino}-3-fluorobenzoic acid]
Human FP Receptor [1]
  IC50: 220 nM

## Cc1c(-c2ccccc2)nc2ccc(Br)cc2c1C(=O)Nc1ccc(C(=O)NS(=O)(=O)C(F)(F)F)cc1F [Example 67, 6-Bromo-N-(2-fluoro-4-{[(trifluoromethyl)sulfonyl]carbamoyl}phenyl)-3-methyl-2-phenylquinoline-4-carboxamide]
Human FP Receptor [1]
  IC50: 239 nM
Human FP Receptor [2]
  IC50: 134 nM

## Cc1c(C(=O)Nc2ccc(C(=O)O)cc2F)c2cc(Br)ccc2[n+]([O-])c1-c1ccccc1 [Example 49, 4-{[(6-Bromo-3-methyl-1-oxido-2-phenylquinolin-4-yl)carbonyl]amino}-3-fluorobenzoic acid]
Human FP Receptor [1]
  IC50: 120 nM

## Cc1ccc2nc(-c3ccccc3)c(C)c(C(=O)Nc3ccc(C(=O)O)cc3F)c2c1 [Example 31, 4-{[(3,6-Dimethyl-2-phenylquinolin-4-yl)carbonyl]amino}-3-fluorobenzoic acid]
Human FP Receptor [1]
  IC50: 165 nM

## O=C(O)c1ccc(NC(=O)c2c(C3CC3)c(-c3ccccc3)nc3ccc(Br)cc23)c(F)c1 [Example 77, 4-{[(6-Bromo-3-cyclopropyl-2-phenylquinolin-4-yl)carbonyl]amino}-3-fluorobenzoic acid]
Human FP Receptor [1]
  IC50: 27 nM

## Cc1c(-c2ccccc2)nc2ccc(Br)cc2c1C(=O)Nc1ccc(C(=O)O)cc1F [Example 69, Potassium 4-{[(6-bromo-3-methyl-2-phenylquinolin-4-yl)carbonyl]amino}-3-fluorobenzoate]
Human FP Receptor [1]
  IC50: 104 nM
Human FP Receptor [2]
  IC50: 59 nM

## Cc1c(-c2ccccc2F)nc2ccc(Br)cc2c1C(=O)Nc1ccc(C(=O)O)cc1F [Example 45, 4-({[6-Bromo-2-(2-fluorophenyl)-3-methylquinolin-4-yl]carbonyl}amino)-3-fluorobenzoic acid]
Human FP Receptor [1]
  IC50: 205 nM

## Cc1c(-c2ccccc2)nc2ccc(Br)cc2c1C(=O)Nc1cnc(C(=O)O)nc1 [Example 4, 5-{[(6-Bromo-3-methyl-2-phenylquinolin-4-yl)carbonyl]amino}pyrimidine-2-carboxylic acid]
Human FP Receptor [1]
  IC50: 880 nM

## Cc1c(-c2ccccc2)nc2ccc(Br)cc2c1C(=O)Nc1cnc(C(=O)O)cn1 [Example 3, 5-{[(6-Bromo-3-methyl-2-phenylquinolin-4-yl)carbonyl]amino}pyrazine-2-carboxylic acid]
Human FP Receptor [1]
  IC50: 170 nM

## O=C(O)c1ccc(NC(=O)c2c(C(F)F)c(-c3ccccc3)nc3ccc(Br)cc23)c(F)c1 [Example 38, 4-({[6-Bromo-3-(difluoromethyl)-2-phenylquinolin-4-yl]carbonyl}amino)-3-fluorobenzoic acid]
Human FP Receptor [1]
  IC50: 265 nM

## O=C(O)c1ccc(NC(=O)c2c(Cl)c(-c3ccccc3)nc3ccc(I)cc23)c(F)c1 [Example 75, 4-{[(3-Chloro-6-iodo-2-phenylquinolin-4-yl)carbonyl]amino}-3-fluorobenzoic acid]
Human FP Receptor [1]
  IC50: 9 nM

## Cc1c(-c2ccccc2)nc2cc(Cl)c(Cl)cc2c1C(=O)Nc1ccc(C(=O)O)cc1F [Example 42, 4-{[(6,7-Dichloro-3-methyl-2-phenylquinolin-4-yl)carbonyl]amino}-3-fluorobenzoic acid]
Human FP Receptor [1]
  IC50: 33 nM

## Prostaglandin F2alpha [PGF2α]
[3]
  t1/2: < 1 min

## Cc1c(-c2ccccc2)nc2ccc(C(C)(C)C)cc2c1C(=O)Nc1ccc(C(=O)O)cc1F [Example 61, 4-{[(6-tert-Butyl-3-methyl-2-phenylquinolin-4-yl)carbonyl]amino}-3-fluorobenzoic acid]
Human FP Receptor [1]
  IC50: 131 nM
Human FP Receptor [2]
  IC50: 79 nM

## Cc1c(-c2ccccc2)nc2ccc(Br)cc2c1C(=O)Nc1ccc(C(=O)NS(=O)(=O)N(C)C)cc1F [Example 68, 6-Bromo-N-{4-[(dimethylsulfamoyl)carbamoyl]-2-fluorophenyl}-3-methyl-2-phenylquinoline-4-carboxamide]
Human FP Receptor [1]
  IC50: 318 nM
Human FP Receptor [2]
  IC50: 182 nM

## Bleomycin
[4]
  half-life: about 3 hours

## CSc1cc(C(=O)O)ccc1NC(=O)c1c(C)c(-c2ccccc2)nc2ccc(Br)cc12 [Example 24, 4-{[(6-Bromo-3-methyl-2-phenylquinolin-4-yl)carbonyl]amino}-3-(methylsulfanyl)benzoic acid]
Human FP Receptor [1]
  IC50: 124 nM
